Here are results for 17 compounds from the Kinase Knowledgebase extract (Sharma et al. 2016).

pIC50: −log10 of the molar value.

For this test, the target named is CDK2 (UniProt P24941). Nature of the test: Enzyme Assay.
Turning to `O=C(Nc1n[nH]c2cc(C(=O)O)sc12)c1ccc(N2CCOCC2)cc1`, the pIC50 was > 6.30.
On to `Cc1c(C(=O)NCc2ccc(F)cc2)sc2c(NC(=O)c3ccc(F)cc3)n[nH]c12`, for which the negative-log IC50 (pIC50) is > 6.30.
The same measure for `Cc1c(C(=O)NCc2ccc(F)cc2)sc2c(NC(=O)c3cccs3)n[nH]c12`: > 6.30; for `CCCCNC(=O)c1cc2[nH]nc(NC(=O)CCCC)c2s1`: > 6.30; for `CN1CCN(C(=O)c2cc3[nH]nc(NC(=O)c4ccc(F)cc4)c3o2)CC1`: > 6.30.
For `CN1CCN(C(=O)c2cc3[nH]nc(NC(=O)c4ccc(F)cc4)c3s2)CC1` the value was > 6.30; for `CN1CCN(c2ccc(C(=O)Nc3n[nH]c4cc(C(=O)NCc5ccco5)sc34)cc2)CC1`, > 6.30.
`C[C@@H](NC(=O)c1cc2c(NC(=O)c3ccc(N4CCN(C)CC4)cc3)n[nH]c2s1)c1ccccc1`: the pIC50 was > 6.30.
For the compound `O=C(Nc1n[nH]c2cc(C(=O)O)oc12)c1ccc(N2CCOCC2)cc1`, the pIC50 was > 6.30.
On to `CCC(NC(=O)c1cc2[nH]nc(NC(=O)c3ccc(N4CCN(C)CC4)cc3)c2o1)c1ccccc1` (configuration not stated), for which the pIC50 is > 6.30.
For `CCCCNC(=O)c1cc2[nH]nc(NC(=O)C3CC3)c2s1` the value was > 6.30; for `CN1CCN(c2ccc(C(=O)Nc3n[nH]c4cc(C(=O)NCc5ccoc5)sc34)cc2)CC1`, > 6.30.
The same measure for `CCCCNC(=O)c1cc2[nH]nc(NC(=O)c3cccs3)c2s1`: > 6.30; for `O=C(Nc1n[nH]c2cc(C(=O)NCc3ccccc3)sc12)c1cc(F)cc(F)c1`: > 6.30.
Turning to `CCNC(=O)c1cc2[nH]nc(NC(=O)c3ccc(N4CCN(C)CC4)cc3)c2s1`, the pIC50 is > 6.30.
The same measure for `C=CCNC(=O)c1cc2[nH]nc(NC(=O)NCc3ccccc3)c2s1`: > 6.30; for `CCC(NC(=O)c1cc2[nH]nc(NC(=O)c3ccc(N4CCOCC4)cc3)c2o1)c1ccccc1` (configuration not stated): > 6.30.

In general, pIC50 refers to the negative decadic logarithm of the IC50, by convention in mol/L. A high value points to a small IC50.
